According to patent US11717508B2, “Compounds, compositions, and methods for inhibiting bacterial growth” (priority 2016, dated 2023):
Where two headings read alike, the source gives them in different places.

Assays:
[1] = tested on: TAG accumulation; type: cell-based, Mycobacterium tuberculosis
[2] = target: DosT (Mycobacterium tuberculosis, UniProt P9WGK1); type: biochemical
[3] = tested on: Mtb CDC1551; experiment: microbe, parasite or virus in culture; conditions: Mycobacterium tuberculosis, CDC1551, read-out: reduction of viability relative to DMSO treated control
[4] = tested on: Mtb Erdman; experiment: microbe, parasite or virus in culture; conditions: Mycobacterium tuberculosis, 240 h, read-out: reduction of Mtb viability in the presence of 5 μM INH relative to cultures not treated with INH

Sequence of DosT (P9WGK1 whole entry): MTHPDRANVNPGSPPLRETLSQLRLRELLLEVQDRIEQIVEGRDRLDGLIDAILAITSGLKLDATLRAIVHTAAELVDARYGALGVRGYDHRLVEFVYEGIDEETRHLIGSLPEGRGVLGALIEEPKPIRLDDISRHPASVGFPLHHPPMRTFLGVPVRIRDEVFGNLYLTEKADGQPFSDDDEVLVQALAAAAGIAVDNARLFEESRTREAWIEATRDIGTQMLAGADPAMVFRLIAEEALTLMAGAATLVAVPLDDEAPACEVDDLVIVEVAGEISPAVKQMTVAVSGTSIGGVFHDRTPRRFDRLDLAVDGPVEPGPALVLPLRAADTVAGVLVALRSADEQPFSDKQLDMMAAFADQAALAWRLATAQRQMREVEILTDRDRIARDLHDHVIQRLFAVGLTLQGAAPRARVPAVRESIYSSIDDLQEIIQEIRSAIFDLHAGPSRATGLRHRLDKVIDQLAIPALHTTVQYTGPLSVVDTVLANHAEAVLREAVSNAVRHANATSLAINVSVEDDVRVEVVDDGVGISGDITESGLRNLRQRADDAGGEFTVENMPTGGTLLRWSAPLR

SMILES	reduction in TAG accumulation ([1]; CDC1551, 40 μM, 6 days) [%]	effect on redox status of DosT heme ([2]; UV-visible spectra)	inhibition at 10 µM [3] [%]	inhibition at 40 µM [4] [%]	reduction in TAG accumulation [1] [%]	effect on redox status of DosT heme [2]	concentration at which artemisinin modulates DosT heme / inhibits DosT ([2]; DTN-reduced DosT) [µM]
C[C@@H]1CC(C)(C)C[C@]2(C1)NC(=O)NC2=O (racemic) [HC102A, 7,7,9-trimethyl-1,3-diazaspiro[4.5]decane-2,4-dione]	67	no impact on the redox status	~50	~30	–	–	–
O=C(Nc1cccc(O)c1)c1cccc(NC(=O)c2cccs2)c1 [HC103A, N-[3-[(3 hydroxyphenyl)carbamoyl]phenyl]thiophene-2-carboxamide]	–	–	~50	~30	56	no impact on the redox status	–
C[C@@H]1CC[C@H]2[C@@H](C)C(=O)O[C@@H]3O[C@]4(C)CC[C@@H]1[C@]32OO4 [HC101A, artemisinin, reference compound]	74	–	~50	~30	–	–	50
